Results published in PubChem BioAssay AID248 (DTP/NCI, 2004).
Several values for one entry are separate records, joined by “and”; a condition that tells them apart may be missing. Equal values may be shown once. Inconclusive results and toxic doses are left out. Cut-off read from the data, not from the text of the source: active = T/C of 150% or more; inactive = T/C below 125%.

Test system: L1210 leukemia ip in BDF1 mice, survival T/C
Assay: NCI In Vivo Anticancer Drug Screen. Data for tumor model L1210 Leukemia (intraperitoneal) in B6D2F1 (BDF1) mice
Settings: endpoint: mean survival time, higher = longer survival
How it was run: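 Each compound was tested against a transplantable tumor grown in mice. The endpoint was survival, with treated animals benchmarked against vehicle controls as a simple ratio.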

[1] = dose: 100.0 mg/kg/injection, schedule: Q04DX003 (ip), vehicle: saline with Tween-80
[2] = dose: 200.0 mg/kg/injection, schedule: Q04DX003 (ip), vehicle: saline with Tween-80
[3] = dose: 400.0 mg/kg/injection, schedule: Q04DX003 (ip), vehicle: saline with Tween-80

Measured: T/C

O=P1(N(CCCl)CCCl)N(Cc2ccccc2)c2ccccc2N1Cc1ccccc1
inactive: dose: 100.0 mg/kg/injection, schedule: Q01DX001 (ip), vehicle: Klucel (hydroxypropylcellulose) (HPC) 102 % of control | dose: 100.0 mg/kg/injection, schedule: Q04DX003 (ip), vehicle: Klucel (hydroxypropylcellulose) (HPC) 102 % of control | dose: 200.0 mg/kg/injection, schedule: Q01DX001 (ip), vehicle: Klucel (hydroxypropylcellulose) (HPC) 94 % of control | dose: 200.0 mg/kg/injection, schedule: Q04DX003 (ip), vehicle: Klucel (hydroxypropylcellulose) (HPC) 98 % of control | dose: 400.0 mg/kg/injection, schedule: Q01DX001 (ip), vehicle: Klucel (hydroxypropylcellulose) (HPC) 100 % of control | dose: 400.0 mg/kg/injection, schedule: Q04DX003 (ip), vehicle: Klucel (hydroxypropylcellulose) (HPC) 101 % of control

CCC[CH2][Sn](=[S])[CH2]CCC
inactive: dose: 0.69 mg/kg/injection, schedule: Q01DX009 (ip), vehicle: other 98 % of control | dose: 0.78 mg/kg/injection, schedule: Q01DX009 (ip), vehicle: saline 93 % of control | dose: 1.04 mg/kg/injection, schedule: Q01DX009 (ip), vehicle: other 95 % of control | dose: 1.56 mg/kg/injection, schedule: Q01DX009 (ip), vehicle: other 96 % of control | dose: 1.56 mg/kg/injection, schedule: Q01DX009 (ip), vehicle: saline 112 % of control | dose: 2.34 mg/kg/injection, schedule: Q01DX009 (ip), vehicle: other 107 % of control | dose: 3.12 mg/kg/injection, schedule: Q01DX009 (ip), vehicle: saline 114 % of control | dose: 3.13 mg/kg/injection, schedule: Q01DX009 (ip), vehicle: other 105 % of control | dose: 6.25 mg/kg/injection, schedule: Q01DX009 (ip), vehicle: saline 122 % of control | dose: 12.5 mg/kg/injection, schedule: Q01DX009 (ip), vehicle: other 88 % of control | dose: 12.5 mg/kg/injection, schedule: Q04DX003 (ip), vehicle: other 98 % of control | dose: 100.0 mg/kg/injection, schedule: Q01DX001 (ip), vehicle: carboxymethylcellulose (CMC) 115 % of control | dose: 200.0 mg/kg/injection, schedule: Q01DX001 (ip), vehicle: carboxymethylcellulose (CMC) 102 % of control | dose: 400.0 mg/kg/injection, schedule: Q01DX001 (ip), vehicle: carboxymethylcellulose (CMC) 86 % of control

CC(=O)CC(=O)C(F)(F)F.CC(=O)CC(=O)C(F)(F)F.CC(=O)CC(=O)C(F)(F)F.[Rh]
inactive: dose: 100.0 mg/kg/injection, schedule: Q01DX009 (ip), vehicle: saline with Tween-80 97 % of control | [1] 97 % of control | dose: 200.0 mg/kg/injection, schedule: Q01DX009 (ip), vehicle: saline with Tween-80 100 % of control | [2] 90 % of control | dose: 400.0 mg/kg/injection, schedule: Q01DX009 (ip), vehicle: saline with Tween-80 96 % of control | [3] 92 % of control

CCC1=C/C(=C/c2ccc([N+](=O)[O-])cc2)C(=O)S1
inactive: dose: 100.0 mg/kg/injection, schedule: Q01DX001 (ip), vehicle: saline with Tween-80 87 % of control | dose: 200.0 mg/kg/injection, schedule: Q01DX001 (ip), vehicle: saline with Tween-80 87 % of control | dose: 400.0 mg/kg/injection, schedule: Q01DX001 (ip), vehicle: saline with Tween-80 87 % of control

C1CCC2[N-]CC3CCCCC3[N-]CC3CCCCC3[N-]CC3CCCCC3[N-]CC2C1.[Cu+2].[O-][Cl+3]([O-])([O-])O (stereo unspecified)
inactive: dose: 12.5 mg/kg/injection, schedule: Q04DX002 (ip), vehicle: Klucel (hydroxypropylcellulose) (HPC) 111 % of control | dose: 25.0 mg/kg/injection, schedule: Q04DX002 (ip), vehicle: Klucel (hydroxypropylcellulose) (HPC) 108 % of control | dose: 50.0 mg/kg/injection, schedule: Q04DX002 (ip), vehicle: Klucel (hydroxypropylcellulose) (HPC) 108 % of control

CC(Br)C(=O)NC(Cc1ccccc1)C(=O)O (stereo unspecified)
inactive: dose: 100.0 mg/kg/injection, schedule: Q01DX009 (ip), vehicle: alcohol 93 % of control | dose: 100.0 mg/kg/injection, schedule: Q04DX003 (ip), vehicle: other 104 % of control | [1] 94 % of control | dose: 200.0 mg/kg/injection, schedule: Q01DX009 (ip), vehicle: alcohol 100 % of control | dose: 200.0 mg/kg/injection, schedule: Q04DX003 (ip), vehicle: other 104 % of control and 88 % of control | [2] 96 % of control | dose: 400.0 mg/kg/injection, schedule: Q01DX009 (ip), vehicle: alcohol 90 % of control | dose: 400.0 mg/kg/injection, schedule: Q04DX003 (ip), vehicle: other 92 % of control and 88 % of control | [3] 91 % of control
